Measurements reported in patent US7005417B1, “Echinocandin derivatives, method for preparing same and use as antifungal agents” (Aventis Pharma S.A., priority 1999, dated 2006).

System: Glucan Synthase of Candida albicans
Experiment: Inhibition of the Glucan Synthase of Candida albicans
Format: biochemical
Settings: Candida albicans membranes, 14C-UDP glucose, 25° C. for 1 hour
Protocol: A—Inhibition of the Glucan Synthase of Candida albicans
Candida albicans membranes were purified according to the process described by Tang et al Antimicrob. Agents Chemother 35, 99–103, 1991. 22.5 μg of membrane proteins are incubated in a mixture of 2 Mm of 14C-UDP glucose (specific activity=0.34 mCi./mmol, 50 μg of α-amylase, 1 Mm of dithiotreitol (DTT), 1 Mm EDTA, 100 Mm NaF, 7 μM of GTP-γ-S, 1 M of sucrose and 50 Mm of Tris-HCL (pH 7.8) in a volume of 100 μl. The medium is incubated at 25° C. for 1 hour and the reaction is terminated by adding TCA at a final concentration of 5%. The reaction mixture is transferred onto a pre-humidified glass fibre filter. The filter is washed, dried and its radioactivity is counted.
Mulundocandine is used as a positive control.
Control of the vehicle is carried out with the same quantity of 1% DMSO.

1-[4-[(2-aminoethyl)amino]-N2-[[4-[5-[4-pentyloxy)-phenyl]-3-isoxazolyl]-phenyl]-carbonyl]-L-ornithine]-4-(4-hydroxyphenyl)-L-threonine]-5-L-serine-echinocandine B [Example 1]
Inhibition of the Glucan Synthase of Candida albicans: good activity
